Laboratory results as given in publication PMC10709007, “GPR162 is a beta cell CART receptor” (iScience, 2023).
“Also recorded” adds a separate entry of the source. Where no end group is shown, it is not given here.

Columns and labels:
[1] = tested on: GPR162; test: Co-immunoprecipitation of CART and GPR162 in INS-1 832/13 cells; format: binding, rat; settings: 10^-7M CARTp55-102, 30 min at 4°C, BS3 cross-link, precipitation with CART antibody, GPR162 blot; n = 3 biological replicates
Description: INS-1 832/13 cell lysates were incubated with 10^−7M CARTp55-102 for 30 min at 4°C and then cross-linked with 1 mM BS[3] for 30 min at room temperature, then precipitated using biotin-labelled CART antibody (code H003-62, dilution 1:5000, Phoenix Pharmaceuticals) bound to streptavidin-coated magnetic Dynabeads (Thermo Fisher). Cells lysates were then washed five times in ice-cold PBS and membrane proteins were extracted using MemPER Plus (Thermo Scientific). Protein concentration was then measured using BCA assay (BioRad, Hercules, CA) and 20 μg loaded on a 10% Mini-PROTEAN TGX Stain-Free gel (BioRad). After electrophoresis (200 V for 40 min) and transfer, the PVDF membrane was blocked in TBS-T with 5% fat free dry milk. Primary antibody (anti-rabbit GPR162, code TA331838, 1:100 dilution, Origene, Rockville, MD) was dissolved in 1XTBS-T with 5% BSA (overnight at 4°C). Secondary antibody (anti-rabbit IgG; 1:2500 dilution) was diluted in 1XTBS-T with 5% dry milk. All wash steps were for 10 min in 1XTBS-T.

[2] = tested on: GPR160; test: Proximity ligation assay (PLA) CART-GPR160 in INS-1 832/13 cells; format: binding, rat; settings: 10^-7M CARTp55-102, 15 minutes (Figure S3B), n = 8
Description: INS-1 832/13 cells were seeded in 8-well tissue culture chambers (Sarstedt, Nümbrecht, Germany). […] Cells were rinsed quickly in ice-cold 1XPBS and then washed twice with ice-cold PBS. Cells were then fixed for 20 min in 4% paraformaldehyde, washed 2 × 10 min in 1XPBS and permeabilized for 15 min in PBS +0.25% Triton X-100. Proximity ligation assay (PLA) (DuoLink In situ Red Starter Kit Goat/Rabbit, Sigma Aldrich) was performed according to the instructions provided by the manufacturers. The following antibody combinations were used for the PLA: goat anti-GPR162 (sc-138323, dilution 1:500, Santa Cruz) with rabbit anti-CART (code 2059A, dilution 1:5000, kindly provided by Dr. Jes T. Clausen, Novo Nordisk, Måløv, Denmark), and goat anti-CART (code sc-18068, dilution 1:400, Santa Cruz) with rabbit anti-GPR162 (code PA5-33655, dilution 1:500, Thermo Scientific). Anti-rabbit GPR160 (code PA5-33650) was combined with anti-goat CART (code sc-18068 from Santa Cruz). Anti-rabbit GNA13 (PA5-100644) was combined with anti-goat GPR162 (sc-138323). Negative controls were omission of both antibodies and the combination of the CART antibody with an antibody toward a receptor with a known ligand. […]

[3] = tested on: INS-1 832/13 cells; test: Whole-cell capacitance measurement (exocytosis), patch-clamp; format: cell-based, rat
Description: Whole-cell capacitance measurement was performed in INS-1 832/13 cells using HEKA EPC10 patch-clamp amplifiers with the software Suite Pulse + X-Chart Extension (version 8.6 or later; HEKA, Lambrecht-Pfalz, Germany) as previously described.[40] Briefly, INS-1 832/13 cells were seeded in Nunc plastic petri dishes one day prior to the measurement. The intracellular pipette solution contained 125 mM Cs-glutamate, 10 mM CsCl, 10 mM NaCl, 1 mM MgCl2, 5 mM HEPES, 3 mM Mg-ATP, 0.1 mM cAMP and 0.05 mM EGTA (pH 7.2 with CsOH). The perfusing extracellular solution was composed of 118 mM NaCl, 20 mM tetraethylammonium chloride, 5.6 mM KCl, 2.6 mM CaCl2, 1.2 mM MgCl2, 5 mM HEPES and 5 mM glucose (pH 7.4), and the temperature was maintained at 32°C.

[4] = tested on: rodent and human islets; settings: in vivo and in vitro/ex vivo; cited from earlier work
Description: However, much earlier, a fragment of the CART peptide was identified in extracts of sheep hypothalamus.[2] CART was later found to be expressed also in pancreatic islet cells and in nerve fibers innervating the islets.[3]^,[4]^,[5] […] Since then, multiple biological effects of CART have been established.[4]^,[7] […] However, the identity of the CART receptor mediating this effect in beta cells is unknown to date.[15] Here, we provide evidence for GPR162 as a CART receptor in beta cells.

[5] = tested on: AtT20 cells; settings: cited from earlier work
Description: However, much earlier, a fragment of the CART peptide was identified in extracts of sheep hypothalamus.[2] CART was later found to be expressed also in pancreatic islet cells and in nerve fibers innervating the islets.[3]^,[4]^,[5] […] Since then, multiple biological effects of CART have been established.[4]^,[7] Among them is the effect of CART on islet hormone secretion fr ...

[6] = tested on: KATO III cells; settings: KATO III cells, RNA interference of Gpr160; cited from earlier work
Description: When studying neuropathic pain, Yosten et al.[11] found GPR160 to be necessary for CARTp-mediated cell activation in cell culture. […] Information on GPR160 is scarce, but it has been reported to be a potential marker for prostate cancer,[24] where it is involved in apoptosis and cell-cycle arrest.[25] […] Recently, the notion of GPR160 being the ...

[7] = tested on: beta cells in islets; settings: between beta cells within same islet; cited from earlier work
Description: Our observation that CART affects cytoskeletal rearrangement is novel. Without doubt, the actin network is of great importance for properly functioning insulin secretion.[34]^,[35]^,[36]^,[37] In the present study, a large number of genes involved in cytoskeletal rearrangement were affected by both Cartpt KD and Gpr162 KD. […] Furthermore, Cartpt KD also affects genes crucial for regulation of exocytosis,[14] a process indeed dependent on ...

Substance: CARTp55-102: Rat, mouse CARTp55-102 (Phoenix Pharmaceuticals, Cat#003-62); human form Cat#003-60; cocaine- and amphetamine-regulated transcript peptide (IPIYEKKYGQVPMCDAGEQCAVRKGARIGKLCDCPRGTSCNSFLLKCL; ends and bridges not checked; cysteine pairing not given here)
- Co-immunoprecipitated GPR162 [1]: stronger binding for GPR162 in the CARTp-treated cells than the binding observed in control cells
- CART-GPR160 interaction (PLA) [2]: no
- CART-GPR160 interaction (PLA) ([2]; listed as CART): failed to detect
- CART-induced increase in capacitance / exocytosis after Gpr162 KD ([3]; Gpr162 KD cells, 10^-7M CARTp55-102 1 h, n = 13-14 cells): abolished; also recorded: near-complete abolishment
- Increase in capacitance ([3]; control cells, 10^-7M CARTp55-102 for 1 h, 5 mM glucose, 32°C, n = 17 cells): approximately 1.3 -fold
- Glucagon secretion [4]: reduces glucagon secretion
- Insulin secretion [4]: increases insulin secretion
- Displacement of radiolabeled CART [5]: radiolabeled CART to be displaced by CARTp55-102
- c-FOS expression after Gpr160 RNA interference [6]: RNA interference of Gpr160 prevented CART from activating c-FOS expression
- Synchronization of Ca2+ oscillations [7]: increased synchronization of Ca^2+ oscillations
